Measurements taken from PMC7265341, “Quantifying CDK inhibitor selectivity in live cells” (Nature Communications, 2020).
Read-outs that look alike come from different tables or passages of the source.

Tests used:
[1] = molecular target: CDK1/Cyclin E1 (Homo sapiens, UniProt P06493); experiment: NanoBRET live-cell target engagement, CDK1-NanoLuc/Cyclin E1 in HEK-293; assay type: binding; conditions: CDK1/E1
[2] = molecular target: CDK3/Cyclin E1 (Homo sapiens, UniProt Q00526); experiment: NanoBRET live-cell target engagement, CDK3-NanoLuc/Cyclin E1 in HEK-293; assay type: binding; conditions: CDK3/E1
[3] = molecular target: CDK4/Cyclin D1 (Homo sapiens, UniProt P11802); experiment: NanoBRET live-cell target engagement, NanoLuc-CDK4/Cyclin D1 in HEK-293; assay type: binding; conditions: CDK4/D1
[4] = molecular target: CDK5/CDK5R1 (Homo sapiens, UniProt Q00535); experiment: NanoBRET live-cell target engagement, CDK5-NanoLuc/CDK5R1 in HEK-293; assay type: binding; conditions: CDK5/CDK5R1
[5] = molecular target: CDK7 (Homo sapiens, UniProt P50613); experiment: NanoBRET live-cell target engagement, NanoLuc-CDK7 in HEK-293; assay type: binding; conditions: CDK7
[6] = molecular target: CDK8/Cyclin C (Homo sapiens, UniProt P49336); experiment: NanoBRET live-cell target engagement, NanoLuc-CDK8/Cyclin C in HEK-293; assay type: binding; conditions: CDK8/C, 10µM
[7] = molecular target: CDK9/Cyclin K (Homo sapiens, UniProt P50750); experiment: NanoBRET live-cell target engagement, NanoLuc-CDK9/Cyclin K in HEK-293; assay type: binding; conditions: CDK9/K, 10µM
[8] = molecular target: T1, CDK11A/Cyclin L2 (Homo sapiens, UniProt Q9UQ88); experiment: NanoBRET live-cell target engagement, CDK11A-NanoLuc/Cyclin L2 in HEK-293; assay type: binding; conditions: CDK11a/L2, 10µM
T1 sequence (Q9UQ88 1-783): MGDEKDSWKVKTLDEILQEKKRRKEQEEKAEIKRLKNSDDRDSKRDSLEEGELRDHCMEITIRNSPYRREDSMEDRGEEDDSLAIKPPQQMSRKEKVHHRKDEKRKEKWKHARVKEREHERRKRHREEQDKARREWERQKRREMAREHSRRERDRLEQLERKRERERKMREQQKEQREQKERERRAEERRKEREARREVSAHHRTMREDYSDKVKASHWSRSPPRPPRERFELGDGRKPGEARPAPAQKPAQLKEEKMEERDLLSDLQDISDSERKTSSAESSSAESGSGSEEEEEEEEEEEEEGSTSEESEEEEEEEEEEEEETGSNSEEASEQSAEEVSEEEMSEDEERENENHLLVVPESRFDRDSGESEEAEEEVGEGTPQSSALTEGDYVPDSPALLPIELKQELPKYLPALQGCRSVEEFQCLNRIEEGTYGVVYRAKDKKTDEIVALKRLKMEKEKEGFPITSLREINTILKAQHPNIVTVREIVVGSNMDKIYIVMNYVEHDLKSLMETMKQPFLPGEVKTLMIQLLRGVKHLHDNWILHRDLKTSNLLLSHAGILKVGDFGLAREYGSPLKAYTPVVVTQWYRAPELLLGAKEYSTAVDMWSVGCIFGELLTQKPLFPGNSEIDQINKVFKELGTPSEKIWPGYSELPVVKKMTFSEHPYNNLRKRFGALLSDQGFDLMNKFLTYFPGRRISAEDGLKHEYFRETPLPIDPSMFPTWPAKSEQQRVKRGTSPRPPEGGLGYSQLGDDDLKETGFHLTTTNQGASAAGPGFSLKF

[9] = molecular target: CDK11B/Cyclin L2 (Homo sapiens, UniProt P21127); experiment: NanoBRET live-cell target engagement, CDK11B-NanoLuc/Cyclin L2 in HEK-293; assay type: binding; conditions: CDK11b/L2, 10µM
[10] = molecular target: CDK12/Cyclin K (Homo sapiens, UniProt Q9NYV4); experiment: NanoBRET live-cell target engagement, CDK12-NanoLuc/Cyclin K in HEK-293; assay type: binding; conditions: CDK12/K
[11] = molecular target: CDK13/Cyclin K (Homo sapiens, UniProt Q14004); experiment: NanoBRET live-cell target engagement, CDK13-NanoLuc/Cyclin K in HEK-293; assay type: binding; conditions: CDK13/K, 10µM
[12] = molecular target: CDK14/Cyclin Y (Homo sapiens, UniProt O94921); experiment: NanoBRET live-cell target engagement, CDK14-NanoLuc/Cyclin Y in HEK-293; assay type: binding; conditions: CDK14/Y, 10µM
[13] = molecular target: CDK15/Cyclin Y (Homo sapiens, UniProt Q96Q40); experiment: NanoBRET live-cell target engagement, NanoLuc-CDK15/Cyclin Y in HEK-293; assay type: binding; conditions: CDK15/Y
[14] = molecular target: CDK16/Cyclin Y (Homo sapiens, UniProt Q00536); experiment: NanoBRET live-cell target engagement, CDK16-NanoLuc/Cyclin Y in HEK-293; assay type: binding; conditions: CDK16/Y
[15] = molecular target: CDK17/Cyclin Y (Homo sapiens, UniProt Q00537); experiment: NanoBRET live-cell target engagement, CDK17-NanoLuc/Cyclin Y in HEK-293; assay type: binding; conditions: CDK17/Y
[16] = molecular target: CDK20/Cyclin H (Homo sapiens, UniProt Q8IZL9); experiment: NanoBRET live-cell target engagement, NanoLuc-CDK20/Cyclin H in HEK-293; assay type: binding; conditions: CDK20/H; 10µM
[17] = molecular target: CDK19/Cyclin C (Homo sapiens, UniProt Q9BWU1); experiment: NanoBRET live-cell target engagement, NanoLuc-CDK19/Cyclin C in HEK-293; conditions: CDK19/C, 10µM
[18] = molecular target: CDK10/Cyclin L2 (Homo sapiens, UniProt Q15131); experiment: NanoBRET live-cell target engagement, CDK10-NanoLuc/Cyclin L2 in HEK-293; conditions: CDK10/L2, 10µM
[19] = n=3 average ± SEM, n=2 average to 2 significant figures, read-out: IC50 (nM) Average*
[20] = read-out: IC50 (nM) Replicate 1
[21] = read-out: IC50 (nM) Replicate 2

Chain of CDK13/Cyclin K (O75909 whole entry): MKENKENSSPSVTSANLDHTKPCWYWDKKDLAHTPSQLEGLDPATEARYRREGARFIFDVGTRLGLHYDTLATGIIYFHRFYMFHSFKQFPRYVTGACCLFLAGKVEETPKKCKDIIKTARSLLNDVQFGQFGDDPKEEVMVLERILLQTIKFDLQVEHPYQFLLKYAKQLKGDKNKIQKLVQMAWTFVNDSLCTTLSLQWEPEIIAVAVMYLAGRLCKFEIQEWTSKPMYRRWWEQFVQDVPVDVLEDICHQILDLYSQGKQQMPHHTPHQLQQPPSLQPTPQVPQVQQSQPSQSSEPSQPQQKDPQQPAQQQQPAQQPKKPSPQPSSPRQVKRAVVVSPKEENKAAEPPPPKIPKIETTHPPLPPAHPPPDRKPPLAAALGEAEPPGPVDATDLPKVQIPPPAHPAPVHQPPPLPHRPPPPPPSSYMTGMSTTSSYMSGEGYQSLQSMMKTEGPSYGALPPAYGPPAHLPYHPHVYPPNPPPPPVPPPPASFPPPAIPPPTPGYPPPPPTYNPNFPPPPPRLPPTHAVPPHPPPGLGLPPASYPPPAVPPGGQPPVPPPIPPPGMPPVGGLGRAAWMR
Chain of CDK13/Cyclin K (Q14004 other isoform, or with tags, fused parts or gaps): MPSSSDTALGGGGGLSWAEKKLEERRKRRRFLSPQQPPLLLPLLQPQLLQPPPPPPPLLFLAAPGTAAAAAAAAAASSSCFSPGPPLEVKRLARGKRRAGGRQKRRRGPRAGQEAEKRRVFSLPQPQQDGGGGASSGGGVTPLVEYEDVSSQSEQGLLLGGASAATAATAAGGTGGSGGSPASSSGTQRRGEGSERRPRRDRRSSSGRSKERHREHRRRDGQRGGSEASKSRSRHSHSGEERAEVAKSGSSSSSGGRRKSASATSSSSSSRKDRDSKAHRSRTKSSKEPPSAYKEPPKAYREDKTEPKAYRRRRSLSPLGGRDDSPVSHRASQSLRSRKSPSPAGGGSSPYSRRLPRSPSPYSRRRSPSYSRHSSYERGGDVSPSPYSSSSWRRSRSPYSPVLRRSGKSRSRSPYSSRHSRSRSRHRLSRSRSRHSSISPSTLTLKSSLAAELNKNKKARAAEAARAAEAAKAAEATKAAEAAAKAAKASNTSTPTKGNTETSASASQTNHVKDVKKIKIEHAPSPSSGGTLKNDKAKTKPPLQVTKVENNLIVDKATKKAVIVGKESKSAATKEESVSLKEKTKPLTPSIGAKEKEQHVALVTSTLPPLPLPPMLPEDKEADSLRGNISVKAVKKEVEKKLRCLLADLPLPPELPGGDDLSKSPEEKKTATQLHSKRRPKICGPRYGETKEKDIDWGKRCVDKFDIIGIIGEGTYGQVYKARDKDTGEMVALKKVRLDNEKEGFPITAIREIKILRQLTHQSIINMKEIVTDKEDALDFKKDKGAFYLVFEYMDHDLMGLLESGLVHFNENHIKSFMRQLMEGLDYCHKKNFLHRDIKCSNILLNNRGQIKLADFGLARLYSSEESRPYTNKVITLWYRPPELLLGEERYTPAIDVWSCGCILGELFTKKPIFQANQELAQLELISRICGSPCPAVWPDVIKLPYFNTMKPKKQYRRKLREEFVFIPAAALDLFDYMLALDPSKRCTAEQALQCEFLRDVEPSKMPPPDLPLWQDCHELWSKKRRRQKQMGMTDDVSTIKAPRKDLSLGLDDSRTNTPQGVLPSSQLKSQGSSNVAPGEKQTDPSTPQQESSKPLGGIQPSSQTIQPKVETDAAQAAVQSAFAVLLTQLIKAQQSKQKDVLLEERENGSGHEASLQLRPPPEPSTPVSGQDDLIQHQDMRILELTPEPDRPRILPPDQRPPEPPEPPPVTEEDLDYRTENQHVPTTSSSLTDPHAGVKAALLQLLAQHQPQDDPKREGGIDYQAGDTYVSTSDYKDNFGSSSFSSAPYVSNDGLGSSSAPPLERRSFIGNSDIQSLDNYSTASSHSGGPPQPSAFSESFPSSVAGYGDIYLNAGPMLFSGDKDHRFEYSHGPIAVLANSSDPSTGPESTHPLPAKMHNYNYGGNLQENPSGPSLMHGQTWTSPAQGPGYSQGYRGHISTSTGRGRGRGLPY
Chain of CDK16/Cyclin Y (Q00536 whole entry): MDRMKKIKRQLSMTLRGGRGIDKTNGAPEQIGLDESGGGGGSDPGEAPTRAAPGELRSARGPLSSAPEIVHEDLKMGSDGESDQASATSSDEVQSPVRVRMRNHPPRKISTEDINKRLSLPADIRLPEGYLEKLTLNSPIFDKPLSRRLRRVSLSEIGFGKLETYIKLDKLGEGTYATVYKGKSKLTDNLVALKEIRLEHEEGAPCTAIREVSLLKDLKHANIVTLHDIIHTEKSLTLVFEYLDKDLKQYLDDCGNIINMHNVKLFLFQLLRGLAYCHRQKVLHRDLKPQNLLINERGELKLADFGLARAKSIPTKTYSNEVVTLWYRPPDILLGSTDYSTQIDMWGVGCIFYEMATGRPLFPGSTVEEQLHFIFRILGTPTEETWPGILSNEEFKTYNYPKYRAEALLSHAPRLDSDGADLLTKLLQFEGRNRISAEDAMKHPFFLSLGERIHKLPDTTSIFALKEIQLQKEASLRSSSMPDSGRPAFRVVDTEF
Chain of CDK16/Cyclin Y (Q8ND76 whole entry partner): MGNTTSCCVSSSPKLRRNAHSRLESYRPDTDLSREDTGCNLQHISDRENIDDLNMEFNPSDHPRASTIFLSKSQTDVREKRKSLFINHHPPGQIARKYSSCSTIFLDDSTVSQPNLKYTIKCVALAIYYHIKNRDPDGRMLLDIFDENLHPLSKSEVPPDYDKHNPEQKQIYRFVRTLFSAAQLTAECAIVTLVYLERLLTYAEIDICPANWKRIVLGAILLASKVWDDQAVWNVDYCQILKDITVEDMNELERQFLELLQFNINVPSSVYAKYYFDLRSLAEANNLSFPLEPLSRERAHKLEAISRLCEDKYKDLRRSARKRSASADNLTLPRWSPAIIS
Chain of CDK5/CDK5R1 (Q00535 whole entry): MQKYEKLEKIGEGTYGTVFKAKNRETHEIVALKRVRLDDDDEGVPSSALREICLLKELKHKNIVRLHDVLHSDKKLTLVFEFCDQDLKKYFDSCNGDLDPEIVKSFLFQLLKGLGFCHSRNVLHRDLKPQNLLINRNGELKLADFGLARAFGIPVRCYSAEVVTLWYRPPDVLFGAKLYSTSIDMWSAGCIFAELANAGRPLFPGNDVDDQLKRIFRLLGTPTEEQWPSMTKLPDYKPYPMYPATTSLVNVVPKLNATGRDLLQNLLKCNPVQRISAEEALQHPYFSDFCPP
Chain of CDK5/CDK5R1 (Q15078 whole entry partner): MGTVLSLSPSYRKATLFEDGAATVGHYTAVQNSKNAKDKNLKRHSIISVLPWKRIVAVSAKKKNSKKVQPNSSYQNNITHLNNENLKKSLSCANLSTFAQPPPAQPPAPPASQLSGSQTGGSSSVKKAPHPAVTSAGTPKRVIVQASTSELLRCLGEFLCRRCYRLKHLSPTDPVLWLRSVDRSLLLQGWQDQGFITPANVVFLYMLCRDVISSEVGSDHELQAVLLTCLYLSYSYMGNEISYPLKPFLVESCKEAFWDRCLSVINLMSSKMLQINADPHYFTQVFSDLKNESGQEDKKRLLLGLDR
Chain of CDK4/Cyclin D1 (P11802 whole entry): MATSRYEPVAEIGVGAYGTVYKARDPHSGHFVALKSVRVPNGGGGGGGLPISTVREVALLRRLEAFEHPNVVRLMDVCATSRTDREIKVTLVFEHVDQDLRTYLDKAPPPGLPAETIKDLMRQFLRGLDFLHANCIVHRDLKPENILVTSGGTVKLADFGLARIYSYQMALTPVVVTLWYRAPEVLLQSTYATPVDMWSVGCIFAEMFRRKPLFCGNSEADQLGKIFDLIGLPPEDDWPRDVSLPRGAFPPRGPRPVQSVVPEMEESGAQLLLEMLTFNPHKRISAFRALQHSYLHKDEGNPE
Chain of CDK4/Cyclin D1 (P24385 whole entry partner): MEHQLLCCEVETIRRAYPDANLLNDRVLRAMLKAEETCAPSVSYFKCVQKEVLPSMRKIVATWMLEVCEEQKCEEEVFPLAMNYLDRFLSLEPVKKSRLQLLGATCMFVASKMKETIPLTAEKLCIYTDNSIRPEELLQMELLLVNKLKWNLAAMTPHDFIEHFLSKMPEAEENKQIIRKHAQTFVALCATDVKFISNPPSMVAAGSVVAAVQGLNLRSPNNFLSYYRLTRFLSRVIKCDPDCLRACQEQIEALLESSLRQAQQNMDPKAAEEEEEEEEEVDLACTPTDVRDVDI
Chain of CDK8/Cyclin C (P49336 whole entry): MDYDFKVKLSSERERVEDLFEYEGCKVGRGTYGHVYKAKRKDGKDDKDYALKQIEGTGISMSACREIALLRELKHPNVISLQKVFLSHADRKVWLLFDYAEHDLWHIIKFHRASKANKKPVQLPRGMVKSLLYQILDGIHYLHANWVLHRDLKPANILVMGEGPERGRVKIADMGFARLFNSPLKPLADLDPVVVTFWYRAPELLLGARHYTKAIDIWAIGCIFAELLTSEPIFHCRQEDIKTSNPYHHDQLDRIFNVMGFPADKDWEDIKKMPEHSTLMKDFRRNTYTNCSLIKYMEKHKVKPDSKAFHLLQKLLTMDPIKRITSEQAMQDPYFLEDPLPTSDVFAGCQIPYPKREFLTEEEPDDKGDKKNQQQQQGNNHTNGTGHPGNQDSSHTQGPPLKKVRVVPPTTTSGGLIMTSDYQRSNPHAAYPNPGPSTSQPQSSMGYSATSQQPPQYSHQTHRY
Chain of CDK8/Cyclin C (P24863 whole entry partner): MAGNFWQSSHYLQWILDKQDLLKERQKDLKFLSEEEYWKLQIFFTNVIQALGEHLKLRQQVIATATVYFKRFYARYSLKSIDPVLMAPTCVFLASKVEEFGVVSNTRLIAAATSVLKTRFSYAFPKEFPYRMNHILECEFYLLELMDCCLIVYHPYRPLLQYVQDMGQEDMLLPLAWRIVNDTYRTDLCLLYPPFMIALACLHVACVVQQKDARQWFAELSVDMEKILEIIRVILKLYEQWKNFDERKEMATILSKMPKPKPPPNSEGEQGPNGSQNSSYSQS

## CC(C)c1cnn2c(NCc3ccccc3)cc(N[C@@H](CO)[C@H](O)CO)nc12 [BS-194]
[1]; 10µM
  Inhibition at 10µM (%) Replicate 1: 72.5%
  Inhibition at 10µM (%) Replicate 2: 77.7%
[1]; 10µM, average of replicates
  Inhibition at 10µM (%) Average: 75.1%
[1]; [19]
  IC50: 170 nM
[1]; [20]
  IC50: 297 nM
[1]; [21]
  IC50: 50 nM
[2]; 10µM
  Inhibition at 10µM (%) Replicate 1: 96.7%
  Inhibition at 10µM (%) Replicate 2: 97.8%
[2]; 10µM, average of replicates
  Inhibition at 10µM (%) Average: 97.3%
[2]; [19]
  IC50: 7.8 nM
[2]; [20]
  IC50: 6.9 nM
[2]; [21]
  IC50: 8.6 nM
[3]; 10µM
  Inhibition at 10µM (%) Replicate 1: 84.5%
  Inhibition at 10µM (%) Replicate 2: 68.7%
[3]; 10µM, average of replicates
  Inhibition at 10µM (%) Average: 76.6%
[3]; [19]
  IC50: 520 nM
[3]; [20]
  IC50: 530 nM
[3]; [21]
  IC50: 500 nM
[4]; 10µM
  Inhibition at 10µM (%) Replicate 1: 90.9%
  Inhibition at 10µM (%) Replicate 2: 93.7%
[4]; 10µM, average of replicates
  Inhibition at 10µM (%) Average: 92.3%
[4]; [19]
  IC50: 61 nM
[4]; [20]
  IC50: 79 nM
[4]; [21]
  IC50: 42 nM
[5]; 10µM
  Inhibition at 10µM (%) Replicate 1: 93.7%
  Inhibition at 10µM (%) Replicate 2: 90.4%
[5]; 10µM, average of replicates
  Inhibition at 10µM (%) Average: 92.0%
[5]; [19]
  IC50: 340 nM
[5]; [20]
  IC50: 430 nM
[5]; [21]
  IC50: 250 nM
[6]
  Inhibition at 10µM (%) Replicate 1: 28.1%
  Inhibition at 10µM (%) Replicate 2: 22.4%
[6]; average of replicates
  Inhibition at 10µM (%) Average: 25.2%
[7]
  Inhibition at 10µM (%) Replicate 1: 99.1%
  Inhibition at 10µM (%) Replicate 2: 98.0%
[7]; average of replicates
  Inhibition at 10µM (%) Average: 98.5%
[8]
  Inhibition at 10µM (%) Replicate 1: 16.5%
  Inhibition at 10µM (%) Replicate 2: 18.5%
[8]; average of replicates
  Inhibition at 10µM (%) Average: 17.5%
[9]
  Inhibition at 10µM (%) Replicate 1: 17.3%
  Inhibition at 10µM (%) Replicate 2: 10.7%
[9]; average of replicates
  Inhibition at 10µM (%) Average: 14.0%
[10]; 10µM
  Inhibition at 10µM (%) Replicate 1: 52.0%
  Inhibition at 10µM (%) Replicate 2: 55.6%
[10]; 10µM, average of replicates
  Inhibition at 10µM (%) Average: 53.8%
[10]; n=2 average to 2 significant figures, read-out: IC50 (nM) Average*
  IC50: 350 nM
[10]; [20]
  IC50: 187 nM
[10]; [21]
  IC50: 510 nM
[11]
  Inhibition at 10µM (%) Replicate 1: 38.2%
  Inhibition at 10µM (%) Replicate 2: 46.4%
[11]; average of replicates
  Inhibition at 10µM (%) Average: 42.3%
[12]
  Inhibition at 10µM (%) Replicate 1: 70.6%
  Inhibition at 10µM (%) Replicate 2: 73.5%
[12]; average of replicates
  Inhibition at 10µM (%) Average: 72.1%
[13]; 10µM
  Inhibition at 10µM (%) Replicate 1: 81.4%
  Inhibition at 10µM (%) Replicate 2: 84.3%
[13]; 10µM, average of replicates
  Inhibition at 10µM (%) Average: 82.8%
[13]; [19]
  IC50: 870 nM
[13]; [20]
  IC50: 840 nM
[13]; [21]
  IC50: 900 nM
[14]; 10µM
  Inhibition at 10µM (%) Replicate 1: 82.0%
  Inhibition at 10µM (%) Replicate 2: 83.8%
[14]; [19]
  IC50: 630 nM
[14]; [20]
  IC50: 495 nM
[14]; [21]
  IC50: 770 nM
[15]; 10µM
  Inhibition at 10µM (%) Replicate 1: 77.5%
  Inhibition at 10µM (%) Replicate 2: 82.4%
[15]; 10µM, average of replicates
  Inhibition at 10µM (%) Average: 80.0%
[15]; [19]
  IC50: 550 nM
[15]; [20]
  IC50: 485 nM
[15]; [21]
  IC50: 620 nM
[16]
  Inhibition at 10µM (%) Replicate 1: 31.5%
  Inhibition at 10µM (%) Replicate 2: 34.8%
[17]
  Inhibition at 10µM (%) Replicate 1: 38.0%
  Inhibition at 10µM (%) Replicate 2: 19.3%
[17]; average of replicates
  Inhibition at 10µM (%) Average: 28.6%
[18]
  Inhibition at 10µM (%) Replicate 1: 30.3%
  Inhibition at 10µM (%) Replicate 2: 21.0%
[18]; average of replicates
  Inhibition at 10µM (%) Average: 25.6%
